# Measurements as given in ChEMBL document CHEMBL4251560, “The Novel 4-Phenyl-2-Phenoxyacetamide Thiazoles modulates the tumor hypoxia leading to the crackdown of neoangiogenesis and evoking the cell death” (Eur J Med Chem, 2018).
# pIC50: −log10 of the molar value. Active and inactive are the calls of the source. The calls are words filed in the database; no cut-off is given here.
# How the values were obtained:
# [1] = system: MCF7; experiment: Cytotoxicity against human MCF7 cells assessed as reduction in cell viability after 48 hrs by MTT assay; format: functional, cell-based; settings: MCF7, 48 h
# [2] = Cytotoxicity against mouse DLA cells assessed as reduction in cell viability after 48 hrs by trypan blue exclusion assay; format: functional, cell-based
# [3] = Cytotoxicity against mouse DLA cells assessed as reduction in cell viability after 48 hrs by MTT assay; format: functional, cell-based
# [4] = system: MDA-MB-468; experiment: Cytotoxicity against human MDA-MB-468 cells assessed as reduction in cell viability after 48 hrs by trypan blue exclusion assay; format: functional, cell-based; settings: MDA-MB-468, 48 h
# [5] = system: Ehrlich; experiment: Cytotoxicity against mouse EAC cells assessed as reduction in cell viability after 48 hrs by trypan blue exclusion assay; format: functional, cell-based
# [6] = system: A549; experiment: Cytotoxicity against human A549 cells assessed as reduction in cell viability after 48 hrs by MTT assay; format: functional, cell-based; settings: A549, 48 h
# [7] = system: MDA-MB-468; experiment: Cytotoxicity against human MDA-MB-468 cells assessed as reduction in cell viability after 48 hrs by MTT assay; format: functional, cell-based; settings: MDA-MB-468, 48 h
# [8] = system: Ehrlich; experiment: Cytotoxicity against mouse EAC cells assessed as reduction in cell viability after 48 hrs by MTT assay; format: functional, cell-based
# [9] = system: A549; experiment: Cytotoxicity against human A549 cells assessed as reduction in cell viability after 48 hrs by trypan blue exclusion assay; format: functional, cell-based; settings: A549, 48 h
# [10] = system: MCF7; experiment: Cytotoxicity against human MCF7 cells assessed as reduction in cell viability after 48 hrs by trypan blue exclusion assay; format: functional, cell-based; settings: MCF7, 48 h
# [11] = system: Ehrlich; experiment: Antitumor activity against mouse EAC cells implanted in ip dosed Swiss albino mouse assessed as decrease in tumor volume administered every alternate day for 3 days; format: functional, organism-based
# [12] = system: Cornea; experiment: Antiangiogenic activity in cornea of alkali injured rat eye assessed as induction of restraining of vessel sprouting applied to centre of cornea for 40 secs post alkali injury; format: functional
# [13] = system: Ehrlich; experiment: Antitumor activity against mouse EAC cells implanted in Swiss albino mouse assessed as decrease in tumor volume at 50 mg/kg, ip administered every alternate day for 3 days; format: functional; settings: 72 h, read-out: TGI
# [14] = system: Ehrlich; experiment: In vivo induction of apoptosis in mouse EAC cells implanted in Swiss albino mouse assessed as EAC cell shrinkage at 25 to 50 mg/kg, ip administered every alternate day for 3 days by Geimsa staining-based microscopic analysis; format: functional, organism-based
# [15] = system: Mus musculus; experiment: In vivo inhibition of HIF-1alpha expression in Swiss albino mouse EAC cells implanted with mouse EAC at 25 to 50 mg/kg, ip administered every alternate day for 3 days by immunoblot analysis; format: functional, organism-based
# [16] = system: Ehrlich; experiment: Antitumor activity against mouse EAC cells implanted in ip dosed Swiss albino mouse assessed as reduction in cell density administered every alternate day for 3 days; format: functional
# [17] = system: Ehrlich; experiment: Antitumor activity against mouse EAC cells implanted in Swiss albino mouse assessed as decrease in tumor volume at 25 mg/kg, ip administered every alternate day for 3 days; format: functional; settings: 72 h, read-out: TGI
# [18] = system: Mus musculus; experiment: Up-regulation of p53 protein expression in Swiss albino mouse EAC cells implanted with mouse EAC at 25 to 50 mg/kg, ip administered every alternate day for 3 days by immunoblot analysis; format: functional, organism-based
# [19] = system: Ehrlich; experiment: In vivo antiangiogenic activity in mouse EAC implanted in Swiss albino mouse assessed as regression of tumor-induced angiogenesis in peritoneum at 5 mg/kg, ip administered every alternate day for 3 days; format: functional; settings: 72 h
# [20] = system: Ehrlich; experiment: In vivo induction of apoptosis in mouse EAC cells implanted in Swiss albino mouse assessed as EAC cell membrane blebbing at 25 to 50 mg/kg, ip administered every alternate day for 3 days by Geimsa staining-based microscopic analysis; format: functional, organism-based
# [21] = system: Mus musculus; experiment: Up-regulation of MDM2 protein expression in Swiss albino mouse EAC cells implanted with mouse EAC at 25 to 50 mg/kg, ip administered every alternate day for 3 days by immunoblot analysis; format: functional, organism-based
# [22] = system: Ehrlich; experiment: Antitumor activity against mouse EAC cells implanted in Swiss albino mouse assessed as mouse survival at 25 to 50 mg/kg, ip administered every alternate day for 3 days; format: functional
# [23] = system: Ehrlich; experiment: In vivo antiangiogenic activity in mouse EAC implanted in Swiss albino mouse administered ip assessed as regression of tumor-induced angiogenesis in peritoneum administered every alternate day for 3 days; format: functional, organism-based
# [24] = system: Chorioallantoic membrane; experiment: In vivo antiangiogenic activity in chicken chorioallantoic membrane assessed as inhibition of recombinant VEGF165-induced vessel formation after 3 days; format: functional, Gallus gallus
# [25] = system: Ehrlich; experiment: Antitumor activity against mouse EAC solid tumor implanted in ip dosed Swiss albino mouse assessed as reduction in tumor volume administered every alternate day for 3 days; format: functional, organism-based
# [26] = system: Mus musculus; experiment: Toxicity in Swiss albino mouse implanted with mouse EAC cells assessed as induction of adverse effect on spleen at 25 to 50 mg/kg, ip administered every alternate day for 3 days; format: organism-based; settings: in vivo, 72 h
# [27] = system: Ehrlich; experiment: Antitumor activity against mouse EAC solid tumor implanted in Swiss albino mouse assessed as reduction in tumor mass at 25 mg/kg, ip administered every alternate day for 3 days; format: functional
# [28] = system: Ehrlich; experiment: Antitumor activity against mouse EAC cells implanted in ip dosed Swiss albino mouse assessed as reduction in ascite volume administered every alternate day for 3 days; format: functional
# [29] = system: Mus musculus; experiment: Toxicity in Swiss albino mouse implanted with mouse EAC cells assessed as induction of adverse effect on liver at 25 to 50 mg/kg, ip administered every alternate day for 3 days; format: organism-based; settings: in vivo, 72 h
# [30] = system: Ehrlich; experiment: In vivo antiangiogenic activity in mouse EAC implanted in Swiss albino mouse assessed as regression of tumor-induced angiogenesis in peritoneum at 25 mg/kg, ip administered every alternate day for 3 days; format: functional; settings: 72 h
# [31] = system: Ehrlich; experiment: Antitumor activity against mouse EAC solid tumor implanted in Swiss albino mouse assessed as reduction in tumor growth at 25 mg/kg, ip administered every alternate day for 3 days by animal morphology analysis; format: functional, organism-based
# [32] = system: Ehrlich; experiment: In vivo induction of apoptosis in mouse EAC cells implanted in Swiss albino mouse assessed as induction of EAC cell irregular shape at 25 to 50 mg/kg, ip administered every alternate day for 3 days by Geimsa staining-based microscopic analysis; format: functional, organism-based
# [33] = system: Mus musculus; experiment: In vivo induction of apoptosis in mouse EAC cells implanted in Swiss albino mouse assessed as DNA fragmentation at 25 to 50 mg/kg, ip administered every alternate day for 3 days by DNA fragmentation assay; format: functional, organism-based
# [34] = system: Mus musculus; experiment: In vivo inhibition of VEGF secretion in Swiss albino mouse EAC cells implanted with mouse EAC at 25 to 50 mg/kg, ip administered every alternate day for 3 days by ELISA; format: functional, organism-based
structure (smiles),measurement,setting,value
Cc1ccccc1OCC(=O)Nc1nc(-c2ccc(Br)cc2)cs1,pIC50,[1],4.40
same,pIC50,[2],4.20
same,pIC50,[3],4.21
same,pIC50,[4],4.35
same,pIC50,[5],4.35
same,pIC50,[6],4.30
same,pIC50,[7],4.35
same,pIC50,[8],4.35
same,pIC50,[9],4.30
same,pIC50,[10],4.40
O=C(COc1ccc(Br)cc1)Nc1nc(-c2ccc(Br)cc2)cs1,pIC50,[1],4.35
same,pIC50,[2],4.28
same,pIC50,[3],4.28
same,pIC50,[4],4.39
same,pIC50,[5],4.39
same,pIC50,[6],4.33
same,pIC50,[7],4.38
same,pIC50,[8],4.38
same,pIC50,[9],4.33
same,pIC50,[10],4.35
O=C(COc1ccccc1)Nc1nc(-c2ccc(Cl)cc2)cs1,pIC50,[1],4.22
same,pIC50,[2],4.27
same,pIC50,[3],4.27
same,pIC50,[4],4.35
same,pIC50,[5],4.25
same,pIC50,[6],4.37
same,pIC50,[7],4.26
same,pIC50,[8],4.26
same,pIC50,[9],4.37
same,pIC50,[10],4.25
Cc1cc(OCC(=O)Nc2nc(-c3ccc(Br)cc3)cs2)ccc1Cl,pIC50,[1],4.28
same,pIC50,[2],4.40
same,pIC50,[3],4.40
same,pIC50,[4],4.29
same,pIC50,[5],4.33
same,pIC50,[6],4.28
same,pIC50,[7],4.28
same,pIC50,[8],4.32
same,pIC50,[9],4.29
same,pIC50,[10],4.29
Cc1ccccc1OCC(=O)Nc1nc(-c2ccc(Cl)cc2)cs1,pIC50,[1],4.21
same,pIC50,[2],4.31
same,pIC50,[3],4.31
same,pIC50,[4],4.28
same,pIC50,[5],4.20
same,pIC50,[6],4.19
same,pIC50,[7],4.40
same,pIC50,[8],4.21
same,pIC50,[9],4.19
same,pIC50,[10],4.20
Cc1ccc(OCC(=O)Nc2nc(-c3ccc(C)cc3)cs2)cc1,pIC50,[1],4.38
same,pIC50,[2],4.40
same,pIC50,[3],4.40
same,pIC50,[4],4.43
same,pIC50,[5],4.35
same,pIC50,[6],4.32
same,pIC50,[7],4.43
same,pIC50,[8],4.34
same,pIC50,[9],4.31
same,pIC50,[10],4.38
O=C(COc1ccc(F)cc1)Nc1nc(-c2ccc(Br)cc2)cs1,pIC50,[1],4.26
same,pIC50,[2],4.36
same,pIC50,[3],4.37
same,pIC50,[4],4.29
same,pIC50,[5],4.34
same,pIC50,[6],4.28
same,pIC50,[7],4.28
same,pIC50,[8],4.34
same,pIC50,[9],4.29
same,pIC50,[10],4.25
Cc1ccc(-c2csc(NC(=O)COc3ccccc3)n2)cc1,pIC50,[1],4.37
same,pIC50,[2],4.29
same,pIC50,[3],4.28
same,pIC50,[4],4.26
same,pIC50,[5],4.30
same,pIC50,[6],4.38
same,pIC50,[7],4.26
same,pIC50,[8],4.30
same,pIC50,[9],4.39
same,pIC50,[10],4.37
O=C(COc1ccc(F)cc1F)Nc1nc(-c2ccc(Br)cc2)cs1,pIC50,[1],4.28
same,pIC50,[2],4.26
same,pIC50,[3],4.25
same,pIC50,[4],4.35
same,pIC50,[5],4.35
same,pIC50,[6],4.23
same,pIC50,[7],4.35
same,pIC50,[8],4.35
same,pIC50,[9],4.23
same,pIC50,[10],4.28
Cc1ccc(OCC(=O)Nc2nc(-c3ccc(Cl)cc3)cs2)cc1,pIC50,[1],4.31
same,pIC50,[2],4.28
same,pIC50,[3],4.28
same,pIC50,[4],4.30
same,pIC50,[5],4.40
same,pIC50,[6],4.34
same,pIC50,[7],4.29
same,pIC50,[8],4.39
same,pIC50,[9],4.35
same,pIC50,[10],4.31
Cc1ccc(-c2csc(NC(=O)COc3ccccc3C)n2)cc1,pIC50,[1],4.27
same,pIC50,[2],4.33
same,pIC50,[3],4.33
same,pIC50,[4],4.29
same,pIC50,[5],4.26
same,pIC50,[6],4.29
same,pIC50,[7],4.28
same,pIC50,[8],4.26
same,pIC50,[9],4.30
same,pIC50,[10],4.27
Cc1ccc(-c2csc(NC(=O)COc3ccc(F)cc3F)n2)cc1,pIC50,[1],4.84
same,Activity,[11],Dose-dependent effect
same,pIC50,[2],4.86
same,pIC50,[3],4.87
same,pIC50,[4],4.99
same,Activity,[12],60%
same,inhibition in vivo at 50 mg/kg,[13],80.2%
same,pIC50,[5],4.85
same,Activity,[14],Active
same,inhibition,[15],Active
same,fold change (FC),[16],6
same,pIC50,[6],4.86
same,inhibition in vivo at 25 mg/kg,[17],74.3%
same,Activity,[18],Active
same,inhibition in vivo at 5 mg/kg,[19],10%
same,Activity,[20],Active
same,Activity,[21],Active
same,Survival,[22],>=23 - 25 day
same,Activity,[23],Dose-dependent effect
same,pIC50,[7],4.98
same,inhibition (INH),[24],80%
same,Activity,[25],Dose-dependent effect
same,pIC50,[8],4.83
same,Activity,[26],Non-Toxic
same,Activity,[27],<=10 g
same,Activity,[28],Dose-dependent effect
same,fold change (FC),[28],3 - 4
same,pIC50,[9],4.88
same,Activity,[29],Non-Toxic
same,inhibition in vivo at 25 mg/kg,[30],30%
same,TGI,[31],Active
same,Activity,[32],Active
same,Activity,[33],Active
same,inhibition,[34],Active
same,pIC50,[10],4.85
CC(C)c1ccccc1OCC(=O)Nc1nc(-c2ccc(Cl)cc2)cs1,pIC50,[1],4.73
same,pIC50,[2],4.40
same,pIC50,[3],4.39
same,pIC50,[4],4.26
same,pIC50,[5],4.30
same,pIC50,[6],4.75
same,pIC50,[7],4.27
same,pIC50,[8],4.30
same,pIC50,[9],4.77
same,pIC50,[10],4.74
